Experimental data taken from paper PMC5408566 (2016).

Legend:
[1] = tested on: 5′Q-5C:12 DA (Cy3 ATP DNA Aptamer with 5′Q-5C:12 ACE) (DNA, aptamer) TCACTGACCTGGGGGAGTATTGCGGAGGAAGGT; experiment: solution FRET (Cy3/BHQ-2) equilibrium titration; conditions: 300 mM Na+, 5 mM Mg2+; apparent; 25 °C; 200 nM aptamer; quencher ACE 5′Q-5C:12 displaced, Q:F 1:1; n = 1.3
[2] = tested on: 5′Q-2T:9 DA (Cy3 ATP DNA Aptamer with 5′Q-2T:9 ACE) (DNA, aptamer) TCACTGACCTGGGGGAGTATTGCGGAGGAAGGT; experiment: solution FRET (Cy3/BHQ-2) equilibrium titration; conditions: 300 mM Na+, 5 mM Mg2+; apparent; 25 °C; 200 nM aptamer; quencher ACE 5′Q-2T:9 displaced, Q:F 1:1; n = 1.3
[3] = tested on: 5′Q-5C:11 DA (Cy3 ATP DNA Aptamer with 5′Q-5C:11 ACE) (DNA, aptamer) TCACTGACCTGGGGGAGTATTGCGGAGGAAGGT; experiment: solution FRET (Cy3/BHQ-2) equilibrium titration; conditions: 300 mM Na+, 5 mM Mg2+; apparent; 25 °C; 200 nM aptamer; quencher ACE 5′Q-5C:11 displaced, Q:F 1:1; n = 1.2
[4] = tested on: 5′Q-5C:9 DA (Cy3 ATP DNA Aptamer with 5′Q-5C:9 ACE) (DNA, aptamer) TCACTGACCTGGGGGAGTATTGCGGAGGAAGGT; experiment: solution FRET (Cy3/BHQ-2) equilibrium titration; conditions: 300 mM Na+, 5 mM Mg2+; apparent; 25 °C; 200 nM aptamer; quencher ACE 5′Q-5C:9 displaced, Q:F 1:1; n = 0.7
[5] = tested on: 5′Q-5C:10 DA (Cy3 ATP DNA Aptamer with 5′Q-5C:10 ACE) (DNA, aptamer) TCACTGACCTGGGGGAGTATTGCGGAGGAAGGT; experiment: solution FRET (Cy3/BHQ-2) equilibrium titration; conditions: 300 mM Na+, 5 mM Mg2+; apparent; 25 °C; 200 nM aptamer; quencher ACE 5′Q-5C:10 displaced, Q:F 1:1; n = 1.0
[6] = tested on: ATP DAs on ACE microarray (Cy3 ATP DNA Aptamer) (DNA, aptamer) TCACTGACCTGGGGGAGTATTGCGGAGGAAGGT; experiment: surface fluorescence loss (aptamer release), non-equilibrium; conditions: immobilised ACE microarray; negative control ligand; no induced fit binding

SMILES | Kd,Exp Obs [1] [µM] | Kd,Exp Obs [2] [µM] | Kd,Exp Obs [3] [µM] | Kd,Exp Obs [4] [µM] | Kd,Exp Obs [5] [µM] | binding [6]
Nc1ncnc2c1ncn2[C@@H]1O[C@H](COP(=O)(O)OP(=O)(O)OP(=O)(O)O)[C@@H](O)[C@H]1O | 1370 | 85 | 663 | 4700 | 163 | 
Nc1nc2c(ncn2[C@@H]2O[C@H](COP(=O)(O)OP(=O)(O)OP(=O)(O)O)[C@@H](O)[C@H]2O)c(=O)[nH]1 |  |  |  |  |  | no
